Where two headings read alike, the source gives them in different places.
Key:
[1] = target: CB1 receptor (Homo sapiens, UniProt P21554); assay: Calcium mobilization assay, agonist mode, CHO expressing CB1 and Gα16; assay type: cell-based
Experimental: (§1) Chinese hamster ovarian (CHO) cells collected from the American Type Culture Collection were maintained in Ham’s F-12K (Kaighn’s) supplemented with 100 mg/L streptomycin, 100 mg/L penicillin, and 10% fetal bovine serum (FBS) in a humidified atmosphere of 5% CO2 at 37 °C. CHO cells were co-transfected with plasmids encoding CB1 or CB2 and Gα16 by electroporation. To establish stable cell lines, transfected cells were seeded on 10 cm dishes with 40 μg/mL blasticidin and 1 mg/mL G418 in culture medium after 24 h. The selection medium was substituted once every 3 days until colonies formed. A solitary colony was obtained, propagated, and assessed using a calcium mobilization assay to verify the function and expression of the transfected genes.
(§2) 3 × 10^4 cells/well were employed to seed cells onto 96-well plates, which were subsequently incubated throughout the night. […] For antagonist mode, the extra dye was washed out and 50 μL of HBSS with test compounds, DMSO (negative control), or AM630 (positive control) was introduced. […] To be noticed, each experiment has been independently replicated three times, with three repetitions and eight gradients each time.
(§3) The collected data were processed with GraphPad Prism software (GraphPad). […] Means ± SEM were computed utilizing this software. The analyses were evaluated by the Student t test. When the p value is smaller than 0.05, the result is statistically significant.

[2] = target: T1, CB2 receptor (Homo sapiens, UniProt P34972); assay: Calcium mobilization assay, agonist mode, CHO expressing CB2 and Gα16; assay type: cell-based; settings: for SI, selectivity index for the CB2, SI = EC50(CB1)/EC50(CB2): agonist mode
T1 construct: expressed in transfected cells
T1 sequence (P34972 whole entry): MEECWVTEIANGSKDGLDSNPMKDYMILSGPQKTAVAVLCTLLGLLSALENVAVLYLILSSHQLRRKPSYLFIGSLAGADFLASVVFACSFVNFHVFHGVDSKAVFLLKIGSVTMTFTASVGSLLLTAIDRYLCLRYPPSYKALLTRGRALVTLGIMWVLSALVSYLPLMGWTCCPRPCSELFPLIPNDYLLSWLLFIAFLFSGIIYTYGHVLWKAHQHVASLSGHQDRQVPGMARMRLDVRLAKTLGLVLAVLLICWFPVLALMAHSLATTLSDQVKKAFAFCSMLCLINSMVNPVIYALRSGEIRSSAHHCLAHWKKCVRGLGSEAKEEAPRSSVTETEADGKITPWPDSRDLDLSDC
Experimental: as §1, §2, §3

[3] = agonist activity, CHO expressing CB1, mean ± SEM, read-out: CB1 EC50
[4] = agonist activity, CHO expressing CB2, three independent assays, mean ± SEM, read-out: CB2 EC50
[5] = single independent experiment, replicate 1, read-out: CB2 agonist(μM) replicate 1
[6] = single independent experiment, replicate 2, read-out: CB2 agonist(μM) replicate 2
[7] = single independent experiment, replicate 3, read-out: CB2 agonist(μM) replicate3

Sequence of CB1 receptor (P21554 whole entry): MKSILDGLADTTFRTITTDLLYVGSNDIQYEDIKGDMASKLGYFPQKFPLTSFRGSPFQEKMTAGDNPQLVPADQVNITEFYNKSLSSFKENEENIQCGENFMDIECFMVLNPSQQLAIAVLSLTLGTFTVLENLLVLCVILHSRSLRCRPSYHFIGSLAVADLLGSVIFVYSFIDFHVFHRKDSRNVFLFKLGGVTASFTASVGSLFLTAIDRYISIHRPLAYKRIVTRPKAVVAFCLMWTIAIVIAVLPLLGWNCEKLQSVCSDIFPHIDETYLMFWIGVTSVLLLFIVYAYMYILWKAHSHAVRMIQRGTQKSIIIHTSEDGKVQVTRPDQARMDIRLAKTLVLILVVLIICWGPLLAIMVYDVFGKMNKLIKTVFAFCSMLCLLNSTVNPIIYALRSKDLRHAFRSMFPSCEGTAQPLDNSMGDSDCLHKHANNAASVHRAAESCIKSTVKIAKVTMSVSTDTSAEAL

Row | Structure (SMILES) | SI, selectivity index for the CB2, SI = EC50(CB1)/EC50(CB2) [2] | EC50 [1, 3] [µM] | EC50 [2, 4] [µM] | EC50 [2, 5] [µM] | EC50 [2, 6] [µM] | EC50 [2, 7] [µM] | also measured
1 | CC(C)N1C(=O)SC(=Cc2ccccc2OCCN2CCOCC2)C1=O [Compound 8, 3-Isopropyl-5-(2-(2-morpholinoethoxy)benzylidene) Thiazolidine-2,4-dione] | 8 | – | – | – | – | – | EC50 ([1]; CB1 EC50, agonist activity, CHO expressing CB1, mean ± SEM): 0.75 ± 0.48 µM; EC50 ([1]; CB1 agonist(μM) replicate 1, single independent experiment, replicate 1): 0.455 µM; EC50 ([1]; CB1 agonist(μM) replicate 2, single independent experiment, replicate 2): 0.109 µM; EC50 ([1]; CB1 agonist(μM) replicate3, single independent experiment, replicate 3): 1.7 µM; EC50 ([2]; CB2 EC50, agonist activity, CHO expressing CB2, three independent assays, mean ± SEM): 0.09 ± 0.07 µM; EC50 ([2]; CB2 agonist(μM) replicate 1, single independent experiment, replicate 1): 0.227 µM; EC50 ([2]; CB2 agonist(μM) replicate 2, single independent experiment, replicate 2): 0.026 µM; EC50 ([2]; CB2 agonist(μM) replicate3, single independent experiment, replicate 3): 0.022 µM
2 | CC(C)N1C(=O)SC(=Cc2ccccc2OC(=O)C2CCCCCC2)C1=O [Compound 23, 2-((3-Isopropyl-2,4-dioxothiazolidin-5-ylidene)methyl)phenyl Cycloheptane Carboxylate] | >12 | > 10 | 0.82 ± 0.41 | 0.225 | 0.638 | 1.6 | –
3 | COc1ccc(C=C2SC(=O)N(C(C)C)C2=O)cc1OC(=O)C(C)(C)CCl [Compound 31, 5-((3-Isopropyl-2,4-dioxothiazolidin-5-ylidene) Methyl)-2-methoxyphenyl 3-Chloro-2,2-dimethylpropanoate] | >3 | > 10 | 3.38 ± 2.15 | 0.814 | 1.68 | 7.65 | –
4 | CCCCCCCC(=O)Oc1ccccc1/C=C1\SC(=O)N(C(C)C)C1=O [Compound 20, 2-((3-Isopropyl-2,4-dioxothiazolidin-5-ylidene) Methyl) Phenyl Octanoate] | – | > 10 | > 10 | – | – | – | –
5 | CC(C)N1C(=O)SC(=Cc2ccccc2OCc2ccccc2C#N)C1=O [Compound 1, 2-((2-((3-Isopropyl-2,4-dioxothiazolidin-5-ylidene)methyl)phenoxy)methyl) Benzonitrile] | >3 | > 10 | 3.12 ± 2.22 | 1.75 | 7.47 | 0.139 | bioactivity against CB1 (in words) ([1]; 10 μM): no bioactivity; response against CHO–CB2 by calcium assay ([2]; 10 μM): > 40%
6 | CC(C)N1C(=O)SC(=Cc2ccccc2OC(=O)C(C)(C)CCl)C1=O [Compound 21, 2-((3-Isopropyl-2,4-dioxothiazolidin-5-ylidene)methyl)phenyl 3-Chloro-2,2-dimethylpropanoate] | >4 | > 10 | 2.33 ± 0.45 | 1.46 | 2.61 | 2.93 | –
7 | CC(C)N1C(=O)SC(=Cc2ccccc2OCc2ccccc2F)C1=O [Compound 6, 5-(2-((2-Fluorobenzyl)oxy)benzylidene)-3-isopropylthiazolidine-2,4-dione] | >27 | > 10 | 0.37 ± 0.26 | 0.188 | 0.026 | 0.886 | –
8 | N#Cc1ccccc1COc1cccc(C=C2SC(=O)N(C3CCCC3)C2=O)c1 [Compound 27, 2-((3-((3-Cyclopentyl-2,4-dioxothiazolidin-5-ylidene)methyl)phenoxy)methyl) Benzonitrile] | – | > 10 | > 10 | – | – | – | –
9 | COc1ccc(C=C2SC(=O)N(CC(C)C)C2=O)cc1OC(=O)C(C)(C)CCl [Compound 34, 5-((3-Isobutyl-2,4-dioxothiazolidin-5-ylidene)methyl)-2-methoxyphenyl 3-Chloro-2,2-dimethylpropanoate] | – | > 10 | > 10 | – | – | – | –

Now from value to compound, other results behind:

Row | SI, selectivity index for the CB2, SI = EC50(CB1)/EC50(CB2) [2] | EC50 [1, 3] [µM] | EC50 [2, 4] [µM] | EC50 [2, 5] [µM] | EC50 [2, 6] [µM] | EC50 [2, 7] [µM] | Structure (SMILES) | also measured
10 | >12 | > 10 | 0.83 ± 0.65 | 0.093 | 0.287 | 2.12 | COc1ccc(/C=C2\SC(=O)N(C(C)C)C2=O)cc1OC(=O)C12CC3CC(CC(C3)C1)C2 [Compound 32, 5-((3-Isopropyl-2,4-dioxothiazolidin-5-ylidene) Methyl)-2-methoxyphenyl (3r, 5r, 7r)-Adamantane-1-carboxylate] | –
11 | – | > 10 | > 10 | – | – | – | O=C1SC(=Cc2ccccc2OCc2ccccc2F)C(=O)N1C1CCCC1 [Compound 12, 3-Cyclopentyl-5-(2-((2-fluorobenzyl)oxy)benzylidene)thiazolidine-2,4-dione] | CB1 and CB2 biological activity (in words) ([2]; CB1 and CB2 calcium mobilization assays, up to 10 μM): no bioactivity
12 | – | > 10 | > 10 | – | – | – | CCCC(=O)Oc1cc(C=C2SC(=O)N(C(C)C)C2=O)ccc1OC [Compound 33, 5-((3-Isopropyl-2,4-dioxothiazolidin-5-ylidene)methyl)-2-methoxyphenylbuty Rate] | –
13 | >2 | > 10 | 3.93 ± 1.97 | 7.84 | 2.4 | 1.54 | CC(C)N1C(=O)SC(=Cc2ccccc2OC(=O)c2ccc(Cl)nc2)C1=O [Compound 24, 2-((3-Isopropyl-2,4-dioxothiazolidin-5-ylidene)methyl)phenyl 6-Chloronico Tinate] | –
14 | >3 | > 10 | 3.22 ± 2.67 | 0.43 | 8.56 | 0.68 | CC(C)CN1C(=O)SC(=Cc2ccccc2OCc2ccccc2C#N)C1=O [Compound 2, 2-((2-((3-Isobutyl-2,4-dioxothiazolidin-5-ylidene)methyl)phenoxy)methyl) Benzonitrile] | –
15 | – | > 10 | > 10 | – | – | – | COc1ccc(C=C2SC(=O)N(CC(C)C)C2=O)cc1OC(=O)c1ccc(CCl)cc1 [Compound 36, 5-((3-Isobutyl-2,4-dioxothiazolidin-5-ylidene)methyl)-2-methoxyphenyl 4-(Chloromethyl)benzoate] | –
16 | – | > 10 | > 10 | – | – | – | COc1ccc(/C=C2\SC(=O)N(C(C)C)C2=O)cc1OC(=O)c1ccc(CCl)cc1 [Compound 30, 5-((3-Isopropyl-2,4-dioxothiazolidin-5-ylidene) Methyl)-2-methoxyphenyl 4-(Chloromethyl) Benzoate] | –
17 | >4 | > 10 | 2.26 ± 0.48 | 1.67 | 1.92 | 3.2 | N#Cc1ccccc1COc1ccccc1C=C1SC(=O)N(C2CCCC2)C1=O [Compound 5, 2-((2-((3-Cyclopentyl-2,4-dioxothiazolidin-5-ylidene)methyl)phenoxy)methyl) Benzonitrile] | –
18 | – | > 10 | > 10 | – | – | – | CC(C)N1C(=O)SC(=Cc2cccc(OCc3ccccc3C#N)c2)C1=O [Compound 25, 2-((3-((3-Isopropyl-2,4-dioxothiazolidin-5-ylidene)methyl)phenoxy)methyl) Benzonitrile] | –
19 | >6 | > 10 | 1.51 ± 0.29 | 0.949 | 1.89 | 1.69 | CC(C)CN1C(=O)S/C(=C\c2ccccc2OC(=O)C(C)(C)CCl)C1=O [Compound 16, 2-((3-Isobutyl-2,4-dioxothiazolidin-5-ylidene)methyl) Phenyl 3-Chloro-2,2-dimethylpropanoate] | –
20 | >3 | > 10 | 2.96 ± 2.3 | 0.637 | 7.56 | 0.693 | COc1ccc(C=C2SC(=O)N(C(C)C)C2=O)cc1OC(=O)c1cccc(Br)c1 [Compound 28, 5-((3-Isopropyl-2,4-dioxothiazolidin-5-ylidene)methyl)-2-methoxyphenyl 3-Bromobenzoate] | –
21 | – | > 10 | > 10 | – | – | – | COc1ccc(C=C2SC(=O)N(CC(C)C)C2=O)cc1OC(=O)c1cccc(Br)c1 [Compound 35, 5-((3-Isobutyl-2,4-dioxothiazolidin-5-ylidene)methyl)-2-methoxyphenyl 3-Bromobenzoate] | –
22 | >2 | > 10 | 3.64 ± 1.14 | 4.96 | 4.58 | 1.38 | CC(C)N1C(=O)S/C(=C\c2ccccc2OC(=O)c2ccccc2F)C1=O [Compound 18, 2-((3-Isopropyl-2,4-dioxothiazolidin-5-ylidene)methyl) Phenyl 2-Fluoro Benzoate] | –
23 | >2 | > 10 | 4.12 ± 1.31 | 2.19 | 6.61 | 3.56 | CC(C)N1C(=O)SC(=Cc2ccccc2OC(=O)C2CC2)C1=O [Compound 22, 2-((3-Isopropyl-2,4-dioxothiazolidin-5-ylidene)methyl)phenyl Cyclopropane Carboxylate] | –

Reference: publication PMC10623575, “Discovery of Potent and Selective CB2 Agonists Utilizing a Function-Based Computational Screening Protocol” (ACS Chemical Neuroscience, 2023)
